Measured values reported in patent US8772268B2, “Bisphosphonamidate prodrugs and uses thereof” (The Johns Hopkins University, priority 2010, dated 2014).
Entries after “also recorded” stand apart in the source; their conditions may differ.

Experiments:
Assay type in all cases: cell-based
L1210 = assay: Cytotoxicity, L1210
MDA-MB-435 = assay: NCI-60 DTP Human Tumor Cell Line Screen; settings: MDA-MB-435, Melanoma, 48 h
NCI-H522 = assay: NCI-60 DTP Human Tumor Cell Line Screen; settings: NCI-H522, Non-Small Cell Lung Cancer, 48 h
SF-268 = assay: NCI-60 DTP Human Tumor Cell Line Screen; settings: SF-268, CNS Cancer, 48 h
[1] = test system: MDA-MB-453 (breast) cancer cell line; assay: MTS cell proliferation assay, MDA-MB-453
Experimental: (§1) Cell proliferation was determined using the CellTiter 96 Aqueous One Solution Cell Proliferation Assay MTS assay. A549 NSCLC cells were plated at 1.5×10^3 cells per well in flat bottom 96 well plates in 99 μL of media and allowed to adhere overnight. The drugs were serially diluted in 100% DMSO. For each drug treatment group, 1 μL of a 100× stock solution was added to each well for a final DMSO concentration of 1%. Cells were treated for 24, 48 or 72 hours. Cells were incubated with MTS dye (20 μL well^−1) for 40 min to 2 h. Absorbance at 490 nm was determined using a SpectraMax M2 (Molecular Devices) plate reader. The percent cell proliferation was calculated by converting the experimental absorbance to percentage of control, which was then plotted vs. drug concentration. The IC50 values were determined using a non-linear dose-response analysis in GraphPad Prism version 4.0. The IC50 is defined as the concentration of drug needed to cause a 50% decrease in proliferation compared to vehicle control.
(§2) The activity of Clodronate prodrug (14) was tested against other cell lines, include prostate (PIP3) and breast (MDA-MB-453) cancer cells lines. Cell proliferation was determined using the CellTiter 96 Aqueous One Solution Cell Proliferation Assay MTS assay as discussed above. Results are shown in FIG. 22 and in the table below.

RPMI-8226 = assay: NCI-60 DTP Human Tumor Cell Line Screen; settings: RPMI-8226, Leukemia, 48 h
UO-31 = assay: NCI-60 DTP Human Tumor Cell Line Screen; settings: UO-31, Renal Cancer, 48 h
RXF 393 = assay: NCI-60 DTP Human Tumor Cell Line Screen; settings: RXF 393, Renal Cancer, 48 h
NCI-H322M = assay: NCI-60 DTP Human Tumor Cell Line Screen; settings: Non-Small Cell Lung Cancer, 48 h
MDA-MB-231/ATCC = assay: NCI-60 DTP Human Tumor Cell Line Screen; settings: Breast Cancer, 48 h
OVCAR-8 = assay: NCI-60 DTP Human Tumor Cell Line Screen; settings: OVCAR-8, Ovarian Cancer, 48 h
SW-620 = assay: NCI-60 DTP Human Tumor Cell Line Screen; settings: SW-620, Colon Cancer, 48 h
[2] = test system: PIP3 (prostate) cancer cell line; assay: MTS cell proliferation assay, PIP3
Experimental: as §1, §2

COLO 205 = assay: NCI-60 DTP Human Tumor Cell Line Screen; settings: COLO 205, Colon Cancer, 48 h
MCF7 = assay: NCI-60 DTP Human Tumor Cell Line Screen; settings: MCF7, Breast Cancer, 48 h
caspases 3/7 = assay: Caspase Glo 3/7 assay; settings: higher drug concentrations, by 48 hours
Experimental: Caspase Glo 3/7 (Promega) assay was used to determine caspases 3/7 activation following treatment of cells with clodronate prodrug. Briefly, cells were treated with clodronate prodrug for 24, 48, or 72 h. Caspase glo 3/7 (Promega) reagent ([…]) was added to each well at 24, 48 or 72 h. The cells were then incubated at room temperature for 1 h, and the luminescence of each well was determined using a luminometer.

A549 NSCLC cells = assay: Cell cycle analysis (PI and flow cytometry); settings: A549, 0, 3, or 10 μM for 72 h, nocodazole for the last 24 h
Experimental: PI and flow cytometry analysis were performed to study the effects of prodrug 14 on cell cycle.
Briefly, A549 NSCLC cells were plated at 6.7×10^4 cells per well in flat bottom 6-well plates. Cells were dosed as described above. At 24, 48 or 72 hours following drug treatment, the media was collected, and the cells were washed with 1 mL PBS. Each well was trypsinized with 600 μL trypsin for 3-5 min. The trypsin reaction was quenched with an equal volume of media. All supernatants and washes were combined and centrifuged at 1,500 rpm for 5 min. Supernantant was decanted, and the cells were washed with 2 mL 1% FBS/PBS. Cells were centrifuged at 1,500 rpm for 5 min, and the supernatant was decanted. Cells were resuspended in 1 mL cold PBS, fixed in cold 70% ethanol and incubated at 4° C. for at least 30 min. Cells were centrifuged at 1,500 rpm for 5 min, washed with 1% FBS/PBS, and resuspended in 1 mL of 2:1 1% FBS in PBS/phosphate citric acid buffer (pH 7.8). Cells were incubated at room temperature for 5 min, then spun at 1,500 rpm for 5 min. The supernatant was decanted, the cells were resuspended and incubated in 300 μL PBS/FBS/PURNase solution (10 μg/mL propidium iodide and 3 K.U. of RNase A) for 30 mM at 37° C. Flow cytometry was performed to analyze DNA content, collecting ten thousand PI positive gated events per sample.

NCI-H23 = assay: NCI-60 DTP Human Tumor Cell Line Screen; settings: NCI-H23, Non-Small Cell Lung Cancer, 48 h
SNB-75 = assay: NCI-60 DTP Human Tumor Cell Line Screen; settings: SNB-75, CNS Cancer, 48 h
OVCAR-3 = assay: NCI-60 DTP Human Tumor Cell Line Screen; settings: OVCAR-3, Ovarian Cancer, 48 h
SK-MEL-28 = assay: NCI-60 DTP Human Tumor Cell Line Screen; settings: SK-MEL-28, Melanoma, 48 h

CN(CCCCCl)P(=O)(OCc1ccc([N+](=O)[O-])cc1)C(Cl)(Cl)P(=O)(OCc1ccc([N+](=O)[O-])cc1)N(C)CCCCCl (centres unmarked) [compound 14] was tested, and the IC50 (L1210) was 11.7 ± 1.78 µM, the Log10GI50 (MDA-MB-435) was −5.55 and the Log10LC50 (MDA-MB-435) was greater than −4.00. For the same compound, the Log10TGI (MDA-MB-435) was −4.65, the Log10GI50 (NCI-H522) was −5.66 and the Log10LC50 (NCI-H522) was greater than −4.00. The Log10TGI (NCI-H522) was −5.11, the Log10GI50 (SF-268) was −5.55 and the Log10LC50 (SF-268) was greater than −4.00. It also gave a Log10TGI (SF-268) greater than −4.00, an EC50 [1] of 9 µM and a Log10GI50 (RPMI-8226) of −5.57. It also gave a Log10LC50 (RPMI-8226) greater than −4.00, a Log10TGI (RPMI-8226) greater than −4.00 and a Log10GI50 (UO-31) of −5.76. For the same compound, the Log10LC50 (UO-31) was greater than −4.00, the Log10TGI (UO-31) was greater than −4.00 and the Log10GI50 (RXF 393) was −5.50. For the same compound, the Log10LC50 (RXF 393) was greater than −4.00, the Log10TGI (RXF 393) was −4.38 and the Log10GI50 (NCI-H322M) was −5.34. The Log10LC50 (NCI-H322M) was greater than −4.00, the Log10TGI (NCI-H322M) was greater than −4.00 and the Log10GI50 (MDA-MB-231/ATCC) was −5.51. It also gave a Log10LC50 (MDA-MB-231/ATCC) greater than −4.00, a Log10TGI (MDA-MB-231/ATCC) greater than −4.00 and a Log10GI50 (OVCAR-8) of −5.38. It also gave a Log10LC50 (OVCAR-8) greater than −4.00, a Log10TGI (OVCAR-8) greater than −4.00 and a Log10GI50 (SW-620) of −5.27. For the same compound, the Log10LC50 (SW-620) was greater than −4.00, the Log10TGI (SW-620) was greater than −4.00 and the EC50 [2] was 3 µM. For the same compound, the Log10GI50 (COLO 205) was −5.53, the Log10LC50 (COLO 205) was greater than −4.00 and the Log10TGI (COLO 205) was −5.10. For the same compound, the Log10GI50 (MCF7) was −5.47, the Log10LC50 (MCF7) was greater than −4.00 and the Log10TGI (MCF7) was −4.82. For the same compound, the “caspases 3/7 activation” value (caspases 3/7) was “Activation of caspases 3/7”, the “effect on cell cycle” value (A549 NSCLC cells) was “G1 cell cycle arrest; also recorded: accumulation of cells in G1 phase is evident” and the Log10GI50 (NCI-H23) was −5.58. It also gave a Log10LC50 (NCI-H23) greater than −4.00, a Log10TGI (NCI-H23) greater than −4.00 and a Log10GI50 (SNB-75) of −5.65. For the same compound, the Log10LC50 (SNB-75) was greater than −4.00, the Log10TGI (SNB-75) was −5.17 and the Log10GI50 (OVCAR-3) was −5.40. It also gave a Log10LC50 (OVCAR-3) greater than −4.00, a Log10TGI (OVCAR-3) greater than −4.00 and a Log10GI50 (SK-MEL-28) of −5.42. It also gave a Log10LC50 (SK-MEL-28) greater than −4.00 and a Log10TGI (SK-MEL-28) greater than −4.00.
